Test systems include K-562 leukemia; NCI-H522 lung; OVCAR-5 ovarian; EKVX NSCLC; SF-539 CNS; NCI-H226 lung; RXF 393 renal; UO-31 renal; CAKI-1 renal; RPMI-8226 leukemia; HT29 colon; TK-10 renal; HS 578T breast; MCF7 breast; OVCAR-3 ovarian; SF-295 CNS; MDA-MB-231 breast; OVCAR-8 ovarian; MDA-N; HCT-15 colon.
Experiment in all cases: inhibition of tumour cell growth, NCI panel, 48 h

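Tested at 5 concentrations; 48 h exposure; 96-well plates; endpoints linearly interpolated, else capped at highest concentration. The concentration for full growth arrest is given as TGI.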 *1 amine or outer side, *2 acyl side, *3 side chain or, on linkers, in order; H or OH if unused. Where a SMILES comes first, the peptide text is derived from it. Bridges are numbered along the chain shown (N, C = ends). [ ]: non-standard residue; d: D form. The star is where a group is joined. X38 = CC[C@H](C)[C@@H](N[*:1])[C@@H](O)CC(=O)[*:2]; NMeY = CN[C@@H](Cc1ccc(O)cc1)C(=O)O; dNMeL = CN[C@H](CC(C)C)C(=O)O; Hiv = CC(C)[C@H](O)C(=O)O; Pyruvoyl = CC(=O)C(=O)*

For the compound `CC(C)OP(=O)(OC(C)C)C(C(C)C)N(C)/C(N)=N\C1=NC(C(F)(F)F)(C(F)(F)F)N=C(C(C(F)(F)F)C(F)(F)F)O1` (centres undefined), the TGI with K-562 leukemia was 5.11 µM; in the experiment on NCI-H522 lung, 3.09 µM; in the experiment on OVCAR-5 ovarian, 11.4 µM; with EKVX NSCLC it was 16.1 µM; in the experiment with SF-539 CNS it was 11.8 µM; in the experiment with NCI-H226 lung, 5.05 µM. The TGI in the experiment with RXF 393 renal came out at 4.08 µM; with UO-31 renal it was 16 µM; in the experiment on CAKI-1 renal, 11.2 µM; in the experiment with RPMI-8226 leukemia it was 7.45 µM; in the experiment with HT29 colon, 6.98 µM; with TK-10 renal, 13.6 µM. The TGI with HS 578T breast is more than 100 µM; in the experiment with MCF7 breast, 32 µM; in the experiment on OVCAR-3 ovarian, 31.6 µM; in the experiment on SF-295 CNS, 18 µM; in the experiment with MDA-MB-231 breast, 4.33 µM; in the experiment with OVCAR-8 ovarian it was 5.28 µM. For the same compound, in the experiment on MDA-N, the TGI turned out to be 4.91 µM.
For `Cc1nn2c(=O)c([N+](=O)[O-])c(/C=C/c3ccccc3)nc2s1`, the TGI in the experiment with K-562 leukemia is more than 26.7 µM; in the experiment on NCI-H522 lung, 12 µM; in the experiment on OVCAR-5 ovarian, more than 100 µM; in the experiment with EKVX NSCLC, more than 29.8 µM; in the experiment with SF-539 CNS, 5.89 µM; with NCI-H226 lung it was 21.1 µM. Moreover, the TGI with RXF 393 renal was 7.32 µM; with UO-31 renal, more than 54 µM; in the experiment with CAKI-1 renal it was more than 100 µM; in the experiment on RPMI-8226 leukemia it was 6.84 µM; in the experiment on HT29 colon it was 7.83 µM; in the experiment with TK-10 renal, 41.3 µM. Also, the TGI with HS 578T breast is more than 100 µM; in the experiment with MCF7 breast it was 8.86 µM; in the experiment with OVCAR-3 ovarian it was 26.5 µM; in the experiment with SF-295 CNS, more than 100 µM; in the experiment with HCT-15 colon, 12.3 µM; in the experiment on MDA-MB-231 breast it was more than 100 µM. Further, the TGI with OVCAR-8 ovarian is 5.26 µM; in the experiment with MDA-N, 6.72 µM.
For the compound `CC[C@H](C)[C@H]1NC(=O)[C@@H](NC(=O)[C@@H](CC(C)C)N(C)C(=O)[C@@H]2CCCN2C(=O)C(C)=O)[C@@H](C)OC(=O)[C@H](Cc2ccc(OC)cc2)N(C)C(=O)[C@@H]2CCCN2C(=O)[C@H](CC(C)C)NC(=O)[C@H](C(C)C)OC(=O)C[C@@H]1O` (Pyruvoyl-P[dNMeL]T[X38][Hiv]LP[NMeY](Me); ester 3-C), the TGI in the experiment on K-562 leukemia came out at 0.104 µM; in the experiment on NCI-H522 lung it was 0.179 µM; in the experiment on OVCAR-5 ovarian, 0.167 µM; in the experiment on EKVX NSCLC it was 0.0103 µM; with SF-539 CNS, 0.0101 µM; in the experiment with NCI-H226 lung, 0.0331 µM. Besides, the TGI in the experiment on RXF 393 renal amounted to 0.0122 µM; with UO-31 renal, 0.137 µM; in the experiment on CAKI-1 renal, 1.22 µM; with RPMI-8226 leukemia it was 0.0465 µM; in the experiment on HT29 colon, 0.0795 µM; with TK-10 renal, 0.0643 µM. Also, the TGI with HS 578T breast came to 0.283 µM; with MCF7 breast, 0.0599 µM; with OVCAR-3 ovarian, 0.0532 µM; with SF-295 CNS, 0.525 µM; with HCT-15 colon, 3.29 µM; in the experiment on MDA-MB-231 breast, 0.112 µM. For the same compound, the TGI with OVCAR-8 ovarian was found to be 0.342 µM; in the experiment with MDA-N, 0.14 µM.
For `Oc1ccccc1/C=N/Nc1nnc2c3ccccc3c3ccccc3c2n1`, the TGI is more than 100 µM with K-562 leukemia; 54.1 µM with NCI-H522 lung; more than 100 µM in the experiment on OVCAR-5 ovarian; more than 100 µM in the experiment on EKVX NSCLC; more than 100 µM in the experiment on SF-539 CNS; more than 100 µM with NCI-H226 lung. Moreover, the TGI in the experiment on RXF 393 renal, in the experiment with UO-31 renal, in the experiment on CAKI-1 renal, in the experiment on RPMI-8226 leukemia, with HT29 colon and in the experiment with TK-10 renal was more than 100 µM each time. Besides, the TGI with HS 578T breast is more than 100 µM; in the experiment with MCF7 breast, more than 100 µM; in the experiment with OVCAR-3 ovarian, 44.2 µM; with SF-295 CNS, more than 100 µM; in the experiment on HCT-15 colon, more than 100 µM; in the experiment with MDA-MB-231 breast it was more than 100 µM. Also, the TGI with OVCAR-8 ovarian and in the experiment with MDA-N was more than 100 µM in each case.
Regarding `c1csc(-c2cscc2-c2ccsc2)c1`, the TGI was more than 100 µM in the experiment on K-562 leukemia; more than 100 µM in the experiment on NCI-H522 lung; more than 100 µM with OVCAR-5 ovarian; more than 100 µM in the experiment on EKVX NSCLC; more than 93.5 µM with SF-539 CNS; more than 78.9 µM in the experiment with NCI-H226 lung. The TGI was 68.3 µM in the experiment on RXF 393 renal; more than 100 µM with UO-31 renal; more than 100 µM with CAKI-1 renal; more than 100 µM in the experiment with RPMI-8226 leukemia; more than 100 µM in the experiment on HT29 colon; more than 100 µM with TK-10 renal. Moreover, the TGI with HS 578T breast is more than 31.6 µM; in the experiment with MCF7 breast it was more than 83.5 µM; in the experiment with OVCAR-3 ovarian, 56.1 µM; with SF-295 CNS it was more than 100 µM; in the experiment on HCT-15 colon, more than 100 µM; in the experiment with MDA-MB-231 breast, more than 100 µM. The values for the TGI with OVCAR-8 ovarian and in the experiment on MDA-N were more than 100 µM and more than 63.3 µM, respectively.
Take `Cc1nc2sc(CCl)nn2c(=O)c1Cl`: the TGI in the experiment on K-562 leukemia was 28.1 µM; with NCI-H522 lung, 12.4 µM; in the experiment with OVCAR-5 ovarian it was 28.7 µM; in the experiment on EKVX NSCLC, 27.7 µM; in the experiment with SF-539 CNS, 31.3 µM; with NCI-H226 lung it was 31.8 µM. Besides, the TGI in the experiment on RXF 393 renal was 11 µM; in the experiment on UO-31 renal, 27.6 µM; in the experiment with CAKI-1 renal it was 24.8 µM; in the experiment on RPMI-8226 leukemia it was 24.4 µM; in the experiment on HT29 colon, 26.2 µM; with TK-10 renal it was 25 µM. Also, the TGI in the experiment on HS 578T breast stood at 47.3 µM; in the experiment on MCF7 breast, 18.1 µM; in the experiment with OVCAR-3 ovarian it was 29.5 µM; with SF-295 CNS it was 31.1 µM; in the experiment with HCT-15 colon, 23.8 µM; in the experiment on MDA-MB-231 breast it was 36.4 µM. Moreover, the figures for the TGI with OVCAR-8 ovarian and with MDA-N were 31.4 µM and 24.8 µM, respectively.

For the origin of these results see PubChem BioAssay (NCI).
